Assay results published in ChEMBL document CHEMBL4376823, “The discovery of a potent and selective third-generation EGFR kinase inhibitor as a therapy for EGFR L858R/T790M double mutant non-small cell lung cancer” (Eur J Med Chem, 2019).
Calls of active or inactive are those of the source.

Legend:
[1] = tested on: Epidermal growth factor receptor (Homo sapiens), P00533 [L858R,T790M]; assay: Inhibition of EGFR T790M/L858R mutant in human NCI-H1975 cells assessed as reduction in EGFR Y1068 phosphorylation at 5 to 100 nM incubated for 4 hrs by Western blot analysis; assay type: cell-based
Epidermal growth factor receptor (Homo sapiens), P00533 [L858R,T790M], sequence (P00533 whole entry T790M/L858R, looked up): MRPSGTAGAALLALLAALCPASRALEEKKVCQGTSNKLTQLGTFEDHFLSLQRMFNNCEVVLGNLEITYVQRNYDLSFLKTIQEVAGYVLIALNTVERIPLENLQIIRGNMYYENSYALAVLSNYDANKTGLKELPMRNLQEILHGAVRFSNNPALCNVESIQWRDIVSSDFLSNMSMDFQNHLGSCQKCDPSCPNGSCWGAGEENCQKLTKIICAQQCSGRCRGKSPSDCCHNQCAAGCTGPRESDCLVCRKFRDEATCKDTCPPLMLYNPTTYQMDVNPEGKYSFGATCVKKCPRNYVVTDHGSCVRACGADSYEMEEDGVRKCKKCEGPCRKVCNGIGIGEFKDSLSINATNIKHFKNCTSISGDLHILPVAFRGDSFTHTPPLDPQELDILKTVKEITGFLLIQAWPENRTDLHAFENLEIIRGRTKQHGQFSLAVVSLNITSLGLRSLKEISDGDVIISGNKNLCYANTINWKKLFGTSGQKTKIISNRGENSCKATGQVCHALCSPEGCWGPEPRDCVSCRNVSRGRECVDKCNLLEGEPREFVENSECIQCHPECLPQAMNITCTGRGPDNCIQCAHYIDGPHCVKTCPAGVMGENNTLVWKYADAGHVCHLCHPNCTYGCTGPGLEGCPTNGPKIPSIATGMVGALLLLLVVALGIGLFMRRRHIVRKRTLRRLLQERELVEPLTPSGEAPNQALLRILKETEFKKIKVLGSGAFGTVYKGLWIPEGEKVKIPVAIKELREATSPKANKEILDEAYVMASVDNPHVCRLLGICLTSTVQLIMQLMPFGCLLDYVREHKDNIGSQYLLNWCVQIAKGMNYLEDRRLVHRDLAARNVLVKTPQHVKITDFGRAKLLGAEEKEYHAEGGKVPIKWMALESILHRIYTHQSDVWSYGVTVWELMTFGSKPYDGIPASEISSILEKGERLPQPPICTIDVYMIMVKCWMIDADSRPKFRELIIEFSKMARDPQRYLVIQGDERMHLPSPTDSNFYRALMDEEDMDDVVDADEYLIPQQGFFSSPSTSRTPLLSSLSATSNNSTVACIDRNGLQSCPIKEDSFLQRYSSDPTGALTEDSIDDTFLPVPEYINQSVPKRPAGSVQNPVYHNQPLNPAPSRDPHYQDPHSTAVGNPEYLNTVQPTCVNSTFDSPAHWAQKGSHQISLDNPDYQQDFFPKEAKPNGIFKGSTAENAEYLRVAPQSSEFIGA

[2] = tested on: Epidermal growth factor receptor (Homo sapiens), P00533 [L858R]; assay: Inhibition of EGFR L858R mutant in human PC9 cells assessed as reduction in AKT phosphorylation incubated for 4 hrs by Western blot analysis; assay type: cell-based
Epidermal growth factor receptor (Homo sapiens), P00533 [L858R], sequence (P00533 whole entry L858R): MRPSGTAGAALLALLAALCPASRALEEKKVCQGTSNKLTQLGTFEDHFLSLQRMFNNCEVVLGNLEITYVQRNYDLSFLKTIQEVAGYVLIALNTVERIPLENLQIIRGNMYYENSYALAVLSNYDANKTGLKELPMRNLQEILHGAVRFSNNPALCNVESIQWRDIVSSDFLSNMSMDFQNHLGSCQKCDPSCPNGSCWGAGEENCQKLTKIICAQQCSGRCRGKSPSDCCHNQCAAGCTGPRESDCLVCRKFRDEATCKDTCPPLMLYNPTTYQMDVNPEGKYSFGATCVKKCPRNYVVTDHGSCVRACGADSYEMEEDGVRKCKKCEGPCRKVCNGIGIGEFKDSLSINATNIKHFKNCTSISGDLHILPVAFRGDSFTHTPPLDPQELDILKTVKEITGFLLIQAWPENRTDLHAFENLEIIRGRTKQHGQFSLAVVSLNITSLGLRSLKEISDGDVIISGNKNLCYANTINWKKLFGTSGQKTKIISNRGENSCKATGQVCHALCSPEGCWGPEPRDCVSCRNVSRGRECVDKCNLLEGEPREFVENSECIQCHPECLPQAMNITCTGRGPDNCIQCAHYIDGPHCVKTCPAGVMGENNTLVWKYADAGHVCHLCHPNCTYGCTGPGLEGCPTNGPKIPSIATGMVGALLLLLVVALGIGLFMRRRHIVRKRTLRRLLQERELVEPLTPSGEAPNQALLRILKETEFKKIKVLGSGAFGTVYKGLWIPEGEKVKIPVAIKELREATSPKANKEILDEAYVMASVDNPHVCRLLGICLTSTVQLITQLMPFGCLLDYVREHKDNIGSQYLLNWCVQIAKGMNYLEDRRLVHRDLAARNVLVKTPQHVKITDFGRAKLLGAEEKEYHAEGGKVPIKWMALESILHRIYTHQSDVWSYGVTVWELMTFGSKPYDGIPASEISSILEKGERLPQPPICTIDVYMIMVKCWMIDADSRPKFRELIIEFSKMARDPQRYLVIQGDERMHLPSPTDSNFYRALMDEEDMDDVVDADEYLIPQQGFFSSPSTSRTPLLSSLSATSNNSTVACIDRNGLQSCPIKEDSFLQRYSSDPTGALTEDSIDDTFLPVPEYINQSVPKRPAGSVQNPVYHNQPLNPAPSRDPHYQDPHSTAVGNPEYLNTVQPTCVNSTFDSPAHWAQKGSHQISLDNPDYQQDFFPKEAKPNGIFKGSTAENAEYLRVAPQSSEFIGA

[3] = tested on: Epidermal growth factor receptor (Homo sapiens), P00533 [L858R]; assay: Inhibition of EGFR L858R mutant in human PC9 cells assessed as reduction in AKT phosphorylation at 5 to 100 nM incubated for 4 hrs by Western blot analysis; assay type: cell-based
[4] = tested on: Epidermal growth factor receptor (Homo sapiens), P00533 [L858R,T790M]; assay: Inhibition of EGFR T790M/L858R mutant in human NCI-H1975 cells assessed as reduction in AKT phosphorylation at 5 to 100 nM incubated for 4 hrs by Western blot analysis; assay type: cell-based
[5] = tested on: Epidermal growth factor receptor (Homo sapiens), P00533 [L858R]; assay: Inhibition of EGFR L858R mutant in human PC9 cells assessed as reduction in EGFR Y1068 phosphorylation at 5 to 100 nM incubated for 4 hrs by Western blot analysis; assay type: cell-based
[6] = target: T1, Epidermal growth factor receptor (Homo sapiens, UniProt P00533); assay: Inhibition of EGFR in human NCI-H292 cells assessed as reduction in AKT phosphorylation at 5 to 100 nM incubated for 4 hrs by Western blot analysis; assay type: cell-based
T1 sequence (P00533 whole entry): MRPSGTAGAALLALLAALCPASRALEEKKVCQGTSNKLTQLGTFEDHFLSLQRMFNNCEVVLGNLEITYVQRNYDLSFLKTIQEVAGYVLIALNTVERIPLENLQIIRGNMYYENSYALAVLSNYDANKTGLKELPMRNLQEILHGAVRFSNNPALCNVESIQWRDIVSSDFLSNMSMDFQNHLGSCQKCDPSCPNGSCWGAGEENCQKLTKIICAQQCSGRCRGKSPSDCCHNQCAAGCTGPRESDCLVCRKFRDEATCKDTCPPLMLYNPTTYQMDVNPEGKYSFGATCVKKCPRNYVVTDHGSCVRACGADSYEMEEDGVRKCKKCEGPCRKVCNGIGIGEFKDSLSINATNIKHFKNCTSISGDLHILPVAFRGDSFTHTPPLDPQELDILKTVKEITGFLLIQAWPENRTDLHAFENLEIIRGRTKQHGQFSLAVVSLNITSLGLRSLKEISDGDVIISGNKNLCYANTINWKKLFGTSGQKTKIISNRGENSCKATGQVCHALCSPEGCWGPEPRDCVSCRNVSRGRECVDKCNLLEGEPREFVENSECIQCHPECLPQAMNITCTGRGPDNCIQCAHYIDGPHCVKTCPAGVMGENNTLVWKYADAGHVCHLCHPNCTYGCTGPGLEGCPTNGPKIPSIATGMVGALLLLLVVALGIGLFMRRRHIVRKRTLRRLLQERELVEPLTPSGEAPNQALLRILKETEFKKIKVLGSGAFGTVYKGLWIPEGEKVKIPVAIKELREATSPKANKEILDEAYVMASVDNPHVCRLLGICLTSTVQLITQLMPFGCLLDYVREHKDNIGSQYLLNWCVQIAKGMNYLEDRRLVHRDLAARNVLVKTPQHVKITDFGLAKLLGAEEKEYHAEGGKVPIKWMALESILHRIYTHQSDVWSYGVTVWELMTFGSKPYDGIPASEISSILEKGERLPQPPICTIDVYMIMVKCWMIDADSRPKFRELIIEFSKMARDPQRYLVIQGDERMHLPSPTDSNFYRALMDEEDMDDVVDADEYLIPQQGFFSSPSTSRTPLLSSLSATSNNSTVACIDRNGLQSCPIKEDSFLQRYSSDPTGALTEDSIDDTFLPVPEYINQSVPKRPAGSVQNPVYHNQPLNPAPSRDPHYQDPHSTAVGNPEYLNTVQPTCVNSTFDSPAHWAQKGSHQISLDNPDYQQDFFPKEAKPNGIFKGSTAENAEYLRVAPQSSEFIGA

[7] = tested on: NCI-H1975; assay: Antitumor activity against human NCI-H1975 cells xenografted in ig dosed BALB/c mouse assessed as tumor growth inhibition for one week; assay type: functional, organism-based
[8] = tested on: NCI-H1975; assay: Induction of apoptosis in human NCI-H1975 cells assessed as upregulation of Bad at 10 to 50 nM incubated for 24 hrs by Western blot analysis; assay type: functional, cell-based
[9] = target: T1, Epidermal growth factor receptor; assay: Inhibition of EGFR in human NCI-H292 cells assessed as reduction in AKT phosphorylation incubated for 4 hrs by Western blot analysis; assay type: cell-based
[10] = target: T1, Epidermal growth factor receptor; assay: Inhibition of EGFR in human NCI-H292 cells assessed as reduction in EGFR Y1068 phosphorylation at 5 to 100 nM incubated for 4 hrs by Western blot analysis; assay type: cell-based
[11] = tested on: Epidermal growth factor receptor (Homo sapiens), P00533 [L858R,T790M]; assay: Inhibition of EGFR T790M/L858R mutant in human NCI-H1975 cells assessed as reduction in AKT phosphorylation incubated for 4 hrs by Western blot analysis; assay type: cell-based
[12] = tested on: NCI-H1975; assay: Induction of apoptosis in human NCI-H1975 cells assessed as reduction in mitochondrial membrane potential at 5 to 50 nM incubated for 24 hrs by JC-1 staining based laser scanning confocal microscopy; assay type: functional, cell-based
[13] = tested on: Epidermal growth factor receptor (Homo sapiens), P00533 [L858R,T790M]; assay: Inhibition of EGFR T790M/L858R mutant in human NCI-H1975 cells assessed as reduction in EGFR Y1068 phosphorylation incubated for 4 hrs by Western blot analysis; assay type: cell-based
[14] = tested on: NCI-H1975; assay: Induction of apoptosis in human NCI-H1975 cells assessed as upregulation of Bax at 10 to 50 nM incubated for 24 hrs by Western blot analysis; assay type: functional, cell-based
[15] = tested on: NCI-H1975; assay: Induction of apoptosis in human NCI-H1975 cells assessed as downregulation of Bcl-2 at 10 to 50 nM incubated for 24 hrs by Western blot analysis; assay type: functional, cell-based

C=CC(=O)Nc1cc(Nc2nccc(-c3cn(C)c4ccccc34)n2)c(OC)cc1[S+]([O-])CCN(C)C (single isomer, unassigned; (-))
active: inhibition [1] | inhibition [2] Dose-dependent effect | inhibition [3] | inhibition [4] | inhibition [5] | inhibition [6] | TGI [7] Dose-dependent effect | Activity [8] | inhibition [9] Dose-dependent effect | inhibition [10] | inhibition [11] Dose-dependent effect | Activity [12] Dose-dependent effect | inhibition [13] Dose-dependent effect | Activity [14] | Activity [15]
